Values quoted from earlier work, collected in US6774247B2, “Aqueous solution of ascorbic acid and method for producing same” (AquaNova German Solubilisate Technology (AGT) GmbH, priority 2001, dated 2004).

Conditions: aqueous ascorbic acid solution, after 30 days

- added ascorbic acid still present: about 70%
SMILES: O=C1O[C@H]([C@@H](O)CO)C(O)=C1O [ascorbic acid]
